From patent publication US8324190B2, “Treatment of proliferative disorders with amino-substituted (E)-2,6- dialkoxystyryl 4-substituted benzylsulfones” (Temple University—Of The Commonwealth System of Higher …, priority 2002, dated 2012)
Counter-ions that a name gives are not always drawn.

Columns and labels:
Assay in all cases: Tumor cell viability assay, Trypan blue exclusion
Format in all cases: cell-based
Settings in all cases: cell viability after 96 hours
[1] = tested on: prostate carcinoma cell line DU-145
Experimental: (§1) BT-20 is an estrogen-unresponsive cell line. NIH/3T3 and HFL are normal murine and human fibroblasts, respectively. BT-20, DLD-1 and H157 were grown in Dulbecco's modified Eagle's medium (DMEM) containing 10% fetal bovine serum supplemented with penicillin and streptomycin. DU145 was cultured in RPMI with 10% fetal bovine serum containing penicillin and streptomycin. NIH3T3 and HFL cells were grown in DMEM containing 10% calf serum supplemented with penicillin and streptomycin. Cells were plated at density levels of 1.0×10^5 cells per well in six-well plates. Cell cultures were maintained at 37° C. in a humidified atmosphere of 5% CO2. Cells were treated with compounds of the invention at various concentrations. Cell viability was determined after 96 hours by the Trypan blue exclusion method. […] The number of viable cells remaining after 96 hours of treatment was determined using hemacytometer following trypan blue staining. The number of viable cells has been plotted as the percent of Vehicle treated (control) cells.

[2] = tested on: colorectal carcinoma cell line DLD-1
Experimental: as §1

[3] = tested on: non-small cell lung carcinoma cell line H157
Experimental: as §1

[4] = tested on: breast adenocarcinoma cell line BT-20
Experimental: as §1

Measured: IC50

(E)-2,4,6-Trimethoxystyryl-3-amino-4-methoxybenzylsulfone-L-serineamide [Example 14]
< 10 µM: all assays above

COc1cc(OC)c(/C=C/S(=O)(=O)Cc2ccc(OC)c(NC(=O)CP(=O)(O)O)c2)c(OC)c1 [Example 38, (E)-2,4,6-trimethoxystyryl-3-(phosphonatoacetamido)-4-methoxybenzylsulfone, disodium salt]
< 10 µM: all assays above

COc1cc(OC)c(/C=C/S(=O)(=O)Cc2ccc(OC)c(NC(=O)c3cc([N+](=O)[O-])cc([N+](=O)[O-])c3)c2)c(OC)c1 [Example 5, (E)-2,4,6-trimethoxystyryl-3-(3,5,dinitrobenzamido)-4-methoxy-benzylsulfone]
< 10 µM: all assays above

COc1cc(OC)c(/C=C/S(=O)(=O)Cc2ccc(OC)c(NC(=O)CN(C)C)c2)c(OC)c1 [Example 21, (E)-2,4,6-trimethoxystyryl-3-(dimethylaminoacetamido)-4-methoxybenzylsulfone]
< 10 µM: all assays above

COc1cc(OC)c(/C=C/S(=O)(=O)Cc2ccc(OC)c(NC(=O)CC(=O)O)c2)c(OC)c1 [Example 2, (E)-2,4,6-Trimethoxystyryl-3-(carboxyacetamido)-4-methoxy-benzylsulfone]
< 10 µM: all assays above

COC(=O)Nc1cc(CS(=O)(=O)/C=C/c2c(OC)cc(OC)cc2OC)ccc1OC [Example 41, (E)-2,4,6-trimethoxystyryl-3-(methoxycarbonylamino)-4-methoxy-benzylsulfone]
< 10 µM: all assays above

COc1cc(OC)c(/C=C/S(=O)(=O)Cc2ccc(OC)c(NCC(=O)O)c2)c(OC)c1 [Example 4, (E)-2,4,6-Trimethoxystyryl-3-(carboxymethylamino)-4-methoxy-benzylsulfone]
< 10 µM: all assays above

COc1cc(OC)c(/C=C/S(=O)(=O)Cc2ccc(OC)c(NC(=O)C[n+]3ccccc3)c2)c(OC)c1 [Example 25, (E)-2,4,6-trimethoxystyryl-3-(pyridinium-1-yl)acetamido-4-methoxybenzylsulfone]
< 10 µM: all assays above

COc1cc(OC)c(/C=C/S(=O)(=O)Cc2ccc(OC)c(NC(=O)c3cc(N)cc(N)c3)c2)c(OC)c1 [Example 6, (E)-2,4,6-trimethoxystyryl-3-(3,5,diaminobenzamido)-4-methoxy-benzylsulfone]
< 10 µM: all assays above

COc1cc(OC)c(/C=C/S(=O)(=O)Cc2ccc(OC)c(NC(N)=O)c2)c(OC)c1 [Example 16, (E)-2,4,6-Trimethoxystyryl-3-(ureido)-4-methoxybenzylsulfone]
< 10 µM: all assays above

COc1cc(OC)c(/C=C/S(=O)(=O)Cc2ccc(OC)c(NC(=O)CN3CCN(C)CC3)c2)c(OC)c1 [Example 8]
< 10 µM: all assays above

COc1cc(OC)c(/C=C/S(=O)(=O)Cc2ccc(OC)c(NC(=O)C(F)(F)C(F)(F)C(=O)O)c2)c(OC)c1 [Example 48, (E)-2,4,6-Trimethoxystyryl-3-(2,2,3,3,tetrafluorosuccinamido)-4-methoxybenzylsulfone]
< 10 µM: all assays above
